Source: ChEMBL document CHEMBL1201862, “PubChem BioAssay data set” (2004)
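Test compounds were applied to cells in 96-well plates for 48 hours at 5 doses. Abbreviation: GI50, concentration required for 50% inhibition of growth.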 Active and inactive are the calls of the source. No stated cut-off is given here; in the data, active = GI50 up to about 1.1 µM and inactive = higher.

Key:
Assay in all cases: growth of human tumour cells (NCI), 48 h
NCI-H460 = test system: NCI-H460
DU-145 = test system: DU-145
MOLT-4 = test system: MOLT-4
HCT-116 = test system: HCT-116
SR = test system: SR
HOP-62 = test system: HOP-62
OVCAR-3 = test system: OVCAR-3
M14 = test system: M14
786-0 = test system: 786-0
COLO 205 = test system: COLO 205
SN12C = test system: SN12C
HCT-15 = test system: HCT-15
IGROV-1 = test system: IGROV-1
SW-620 = test system: SW-620
Hs-578T = test system: Hs-578T
MCF7 = test system: MCF7
SF-295 = test system: SF-295
EKVX = test system: EKVX
HOP-92 = test system: HOP-92

Structure (SMILES)	GI50 (NCI-H460)	GI50 (DU-145)	GI50 (MOLT-4)	GI50 (HCT-116)	GI50 (SR)	GI50 (HOP-62)	GI50 (OVCAR-3)	GI50 (M14)	GI50 (786-0)	GI50 (COLO 205)	GI50 (SN12C)	GI50 (HCT-15) [µM]	GI50 (IGROV-1)	GI50 (SW-620)	GI50 (Hs-578T)	GI50 (MCF7)	GI50 (SF-295)	GI50 (EKVX)	GI50 (HOP-92)
c1ccc2c(c1)c1c(n2CCOCCN2CCCC2)CCCC1	15 µM (inactive)	30.3 µM (inactive)	16.7 µM (inactive)	17.1 µM (inactive)	17.2 µM (inactive)	15.5 µM (inactive)	25.4 µM (inactive)	15.6 µM (inactive)	16.1 µM (inactive)	19.5 µM (inactive)	17.5 µM (inactive)	17	23.7 µM (inactive)	16.2 µM (inactive)	14.9 µM (inactive)	16 µM (inactive)	37.2 µM (inactive)	25.9 µM (inactive)	27.7 µM (inactive)
Cc1ccc(NC2=NCCO2)c2c1CCC2	27.5 µM (inactive)	63.2 µM (inactive)	33.9 µM (inactive)	15.3 µM (inactive)	22.1 µM (inactive)	27.9 µM (inactive)	21.6 µM (inactive)	21 µM (inactive)	56 µM (inactive)	23.6 µM (inactive)	45 µM (inactive)	44.2	40 µM (inactive)	46.9 µM (inactive)	22.9 µM (inactive)	31.8 µM (inactive)	> 100 µM (inactive)	48.4 µM (inactive)	27.3 µM (inactive)
CCN(CC)Cc1nc(C2CCC([N+](=O)[O-])O2)no1 (stereo not given)	20.5 µM (inactive)	25.7 µM (inactive)	53.5 µM (inactive)	24.3 µM (inactive)	28.2 µM (inactive)	35.7 µM (inactive)	23.8 µM (inactive)	14.5 µM (inactive)	40 µM (inactive)	16.6 µM (inactive)	47.1 µM (inactive)	19.4	41.5 µM (inactive)	19.4 µM (inactive)	31.6 µM (inactive)	15.6 µM (inactive)	30.1 µM (inactive)	> 100 µM (inactive)	> 100 µM (inactive)
OC12CC3c4ccccc4NC3C3Oc4cccc5c4C31CCN(CC1CC1)C2C5 (stereo not given)	17.6 µM (inactive)	17.1 µM (inactive)	15.5 µM (inactive)	16.8 µM (inactive)	17.4 µM (inactive)	18.5 µM (inactive)	16.9 µM (inactive)	17.7 µM (inactive)	16.7 µM (inactive)	20.9 µM (inactive)	17.2 µM (inactive)	17.9	15.5 µM (inactive)	11.8 µM (inactive)	23.9 µM (inactive)	17.8 µM (inactive)	30.9 µM (inactive)	16.7 µM (inactive)	11.4 µM (inactive)
COc1ccc2[nH]c3c(C)c4ccnc(NCCCN(C)CCCNC(=O)NCCCN(C)CCCNc5nccc6c(C)c7[nH]c8ccc(OC)cc8c7c(C)c56)c4c(C)c3c2c1	0.348 µM (active)	1.19 µM (inactive)	0.236 µM (active)	0.208 µM (active)	0.102 µM (active)	0.419 µM (active)	1.29 µM (inactive)	0.753 µM (active)	0.233 µM (active)	0.324 µM (active)	0.269 µM (active)	1.26	0.476 µM (active)	0.202 µM (active)	0.977 µM (active)	0.164 µM (active)	0.566 µM (active)	0.925 µM (active)	0.406 µM (active)
